Assay results from patent publication US20250375435A1, “COMPOUNDS FOR TREATING INFECTIONS” (Ohio State Innovation Foundation, priority 2022, published 2025).

Tested on: Salmonella
Experiment: Single-infection mouse model with probiotic strain added 1:1 to wild-type or fraB mutant Salmonella
Format: in vivo, streptomycin-treated Swiss Webster mice
Conditions: presence or absence of probiotic or exogenous F-Asn, day 4 post-infection
Procedure: A quadruple mutant designated ASD203 (ASPII ASPI2 AfraRBDAE4 AasnB80:kan) was evaluated for use as a probiotic in combination with FraB inhibitors. This is a strain of Salmonella lacking SPI1 and SPI2 so that it cannot induce inflammation. Additionally, this strain cannot consume F-Asn due to a deletion of the entire fra island (fraR-fraBDAE). The ansB gene was also deleted as this asparaginase is capable of converting F-Asn to F-Asp. The addition of this probiotic should provide an inflammation resistant competitor to Salmonella for all nutrients except F-Asn, effectively forcing the use of F-Asn as a nutrient. […]
Mouse modeling experiments—For competition experiments, a 1:1 mixture of two different bacterial strains were inoculated intragastrically (i.g.) and then recovered from ceca to determine the competitive index (CI) of the two strains. […] CI was determined by plating on media selective for WT (LB cam) and mutant (LB kan). For the competitions with the fraB F214A mutant which is not marked, CI was determined by screening 52 individual colonies recovered from XLD plates for antibiotic resistance by patching on LB plates containing the appropriate antibiotic, thus the limit of detection on these experiments is less than two logs. […] CFU enumeration was determined by plating on media selective for WT (LB cam) and the mutant (LB kan). […]

Substance: fructose-asparagine [F-Asn]
- numbers of fraB mutant bacteria recovered: not significantly different
